This note sets out measurements from patent US20150018403A1, “FLUORENE-AMIDE COMPOUNDS AND PHARMACEUTICAL USE THEREOF” (JAPAN TOBACCO INC., priority 2013, published 2015).

Each structure is given as a SMILES string.

The subject of test [1] is tissue PDH activity. As to the kind of experiment: Ex vivo PDH activation assay (liver and epididymal adipose tissue mitochondrial fractions after oral dosing). In kind it is in vivo, Sprague-Dawley rats. Conditions: 3 mg/kg, rat. The method, then:
The action of test compound on tissue PDH activity was evaluated. NADH production was detected via p-iodonitrotetrazolium violet (INT)-coupled system to measure PDH activity.
Normal male Sprague-Dawley rats were randomly allocated m to the vehicle group and the test compound groups. The vehicle (0.5% aqueous methylcellulose solution, 5 mL/kg) or the test compound was orally administered to the rats. At 5 or 20 hr after administration, the rats were anesthetized with an intraperitoneal injection of sodium pentobarbital (60 mg/kg), and liver slices and epididymal adipose tissues were collected.
To the liver slices were rapidly added 9 volumes of ice-cold homogenization buffer (0.25 mol/L sucrose, 5 mmol/L tris(hydroxymethyl)aminomethane hydrochloride (pH 7.5), 2 mmol/L EDTA), and the mixtures were homogenized using a Polytron homogenizer. The homogenates were centrifuged at 600×g, 4° C. for 10 min to obtain the supernatant. The supernatants (1 mL) were centrifuged at 16,000×g, 4° C. for 10 min to collect the precipitates. The precipitates were washed by resuspension in the homogenization buffer (1 mL) and centrifuged in the same manner. The precipitates were frozen with liquid nitrogen and stored at −80° C. as the liver mitochondrial fraction.
To the adipose tissues were rapidly added 3 volumes of an ice-cold homogenization buffer, and the mixtures were homogenized using a Polytron homogenizer. The homogenates were centrifuged at 600×g, 4° C. for 10 min to obtain the supernatant. The supernatants were centrifuged at 16,000×g, 4° C. for 10 min to collect the precipitates. The precipitates were washed by resuspension in the homogenization buffer (1 mL) and centrifuged in the same manner. The precipitates were frozen with liquid nitrogen and stored at −80° C. as the adipose tissue mitochondrial fraction.
The mitochondrial fractions were thawed and suspended with the sample buffer (0.25 mol/L sucrose, 20 mmol/L tris(hydroxymethyl)aminomethane hydrochloride (pH 7.5), 50 mmol/L potassium chloride, and 1 mL/L 4-(1,1,3,3-tetramethylbutyl)phenyl-polyethylene glycol (Triton X-100)). Active PDH activity (PDHa activity) and total PDH activity (PDHt activity) were measured to evaluate the PDH activity. For the measurement of the PDHt activity, equal amounts of the mitochondrial suspension and the activation buffer (0.25 mol/L sucrose, 20 mmol/L tris(hydroxymethyl)aminomethane hydrochloride (pH 7.5), 50 mmol/L potassium chloride, 1 mL/L Triton X-100, 4 mmol/L calcium chloride, 40 mmol/L magnesium chloride, 10 mmol/L sodium dichloroacetate) were mixed, and the mixtures were incubated at 37° C. for 10 min. Forty microliters of the mitochondrial suspensions diluted with a sample buffer were added to a 96-well microplate for activity measurement and blank measurement. Then 180 μL of the reaction mixture (0.056 mmol/L potassium phosphate buffer (pH 7.5), 5.6 mmol/L DL-carnitine, 2.8 mmol/L NAD, 0.22 mmol/L thiamin pyrophosphate, 0.11 mmol/L Coenzyme A, 1.1 mL/L Triton X-100, 1.1 mmol/L magnesium chloride, 1.1 g/L bovine serum albumin, 0.67 mmol/L INT, 7.2 μmol/L phenazine methosulfate, 28 mmol/L sodium oxamate) was added to each well, and then 20 μL of 50 mmol/L sodium pyruvate for activity measurement or water for blank measurement were added. The mixtures were incubated at room temperature under shading. The absorbances at 500-750 nm, which were attributable to reduction of INT, the final electron acceptor, were measured using a microplate reader over time and the changes in the absorbance were calculated. The PDH activity was calculated by subtraction of the change in absorbance of the blank well from that of the activity measurement well. The percentage of the PDHa activity to the PDHt activity was calculated and taken as an index of the PDH activation.

A short description of test [2]: Effect of repeated administration on HbA1c in ZDF rats. Particulars: 1 mg/kg oral once daily, day 27 of administration, vehicle 4.4 ± 0.4, p < 0.05 vs. vehicle. In kind it is in vivo, Zucker Diabetic Fatty rats. As to the method: Zucker Diabetic Fatty rats (male, 7-week-old, CHARLES RIVER LABORATORIES JAPAN INC.), an animal model for type 2 diabetes, given a purified diet (5.9% fat diet, Oriental Yeast Co., Ltd.) were allocated to the vehicle group and the test compound groups so that no bias occurred in the plasma glucose and insulin levels, HbA1c levels and body weights. Repeated oral doses of the test compound (1 mg/kg/5 mL) were administered to the rats once daily at 3 hr before the dark period. A 0.5% aqueous methylcellulose solution was orally administered in the same manner to the rats of the vehicle group. On day 27 of administration, blood samples were collected from the tail vein and HbA1c level (%) was measured. Statistical analysis was performed by Dunnett's test. Values of p<0.05 were considered statistically significant.

As for `C[C@H](O)COc1cc(-c2cnn(C(C)(C)C(N)=O)c2)c2c(c1)[C@@](O)(C(F)(F)F)c1ccccc1-2` [compound (2), 2-(4-{(9R)-9-hydroxy-2-[(2S)-2-hydroxypropoxy]-9-(trifluoromethyl)-9H-fluoren-4-yl}-1H-pyrazol-1-yl)-2-methylpropanamide], the “PDHa activity (% PDHt activity)” value in test [1] (adipose tissue, 5 hr after oral administration) came to 72 ± 4 % PDHt activity; in test [1] (adipose tissue, 20 hr after oral administration) it was 44 ± 6 % PDHt activity; in test [1] (liver, 5 hr after oral administration) it was 67 ± 11 % PDHt activity; in test [1] (liver, 20 hr after oral administration), 41 ± 11 % PDHt activity. The “HbA1c (%)” value in test [2] turned out to be 3.9 ± 0.5 %.
